Laboratory results from PubChem BioAssay (NCI).
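Five compound concentrations were applied to cells in 96-well plates for 48 hours; endpoints were derived by simple linear interpolation of the resulting dose-response curve. TGI marks complete inhibition of growth.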

Columns and labels:
Test in all cases: NCI anticancer screen, dose series, 48 h
HL-60(TB) leukemia = system: HL-60(TB) leukemia
SF-539 CNS = system: SF-539 CNS
OVCAR-3 ovarian = system: OVCAR-3 ovarian
HCT-15 colon = system: HCT-15 colon
RPMI-8226 leukemia = system: RPMI-8226 leukemia
HOP-62 NSCLC = system: HOP-62 NSCLC
SNB-75 CNS = system: SNB-75 CNS
NCI/ADR-RES ovarian = system: NCI/ADR-RES ovarian
786-0 renal = system: 786-0 renal
T-47D breast = system: T-47D breast

## O=C1CCCn2c3ccccc3c3ccnc1c32
HL-60(TB) leukemia
  TGI: 23 µM
SF-539 CNS
  TGI: > 100 µM
OVCAR-3 ovarian
  TGI: > 100 µM
HCT-15 colon
  TGI: > 100 µM
RPMI-8226 leukemia
  TGI: > 100 µM
HOP-62 NSCLC
  TGI: > 100 µM
SNB-75 CNS
  TGI: > 100 µM
NCI/ADR-RES ovarian
  TGI: > 100 µM

## O=c1[nH]/c(=C/c2cccs2)c(=O)[nH]/c1=C/c1ccc(OCc2ccccc2)cn1
786-0 renal
  TGI: 25.6 µM
HL-60(TB) leukemia
  TGI: 0.244 µM
SF-539 CNS
  TGI: 12.5 µM
OVCAR-3 ovarian
  TGI: 0.0382 µM
HCT-15 colon
  TGI: 28.8 µM
RPMI-8226 leukemia
  TGI: > 43.2 µM
HOP-62 NSCLC
  TGI: 8.47 µM
SNB-75 CNS
  TGI: 2.66 µM
NCI/ADR-RES ovarian
  TGI: 0.475 µM

## O=c1[nH]nc(Nc2ccccc2)c2nnn(Cc3ccccc3)c12
786-0 renal
  TGI: > 100 µM
HL-60(TB) leukemia
  TGI: > 100 µM
SF-539 CNS
  TGI: > 100 µM
HCT-15 colon
  TGI: > 100 µM
T-47D breast
  TGI: > 100 µM
HOP-62 NSCLC
  TGI: 24 µM
SNB-75 CNS
  TGI: 85.3 µM
NCI/ADR-RES ovarian
  TGI: > 100 µM

## CC(CCC(=O)O)(c1cc(Br)c(O)c(Br)c1)c1cc(Br)c(O)c(Br)c1
786-0 renal
  TGI: > 100 µM
HL-60(TB) leukemia
  TGI: > 100 µM
SF-539 CNS
  TGI: > 100 µM
OVCAR-3 ovarian
  TGI: > 100 µM
HCT-15 colon
  TGI: > 100 µM
RPMI-8226 leukemia
  TGI: > 100 µM
T-47D breast
  TGI: > 100 µM
HOP-62 NSCLC
  TGI: > 100 µM
SNB-75 CNS
  TGI: > 100 µM
NCI/ADR-RES ovarian
  TGI: > 100 µM

## CS(=O)(=O)c1ccc(C2=C(c3ccccc3)C(=O)OC2)cc1
786-0 renal
  TGI: > 100 µM
HL-60(TB) leukemia
  TGI: > 100 µM
SF-539 CNS
  TGI: > 100 µM
OVCAR-3 ovarian
  TGI: > 100 µM
HCT-15 colon
  TGI: > 100 µM
RPMI-8226 leukemia
  TGI: > 100 µM
T-47D breast
  TGI: > 100 µM
HOP-62 NSCLC
  TGI: > 100 µM
SNB-75 CNS
  TGI: > 100 µM
NCI/ADR-RES ovarian
  TGI: > 100 µM

## COC(=O)c1ccc2c(c1)CC1(C2)Cc2ccc3c(c2C1)CCC3 (stereo not given)
786-0 renal
  TGI: > 100 µM
HL-60(TB) leukemia
  TGI: 39.7 µM
SF-539 CNS
  TGI: > 100 µM
OVCAR-3 ovarian
  TGI: > 100 µM
HCT-15 colon
  TGI: > 100 µM
RPMI-8226 leukemia
  TGI: 74.3 µM
T-47D breast
  TGI: 69.1 µM
HOP-62 NSCLC
  TGI: 93 µM
SNB-75 CNS
  TGI: > 100 µM

## CCCc1c(OC)c(O)c2c(=O)cc(OC)c3c4c(OC)cc(=O)c5c(O)c(OC)c(CCC)c(c1c23)c54
786-0 renal
  TGI: 13.5 µM
SF-539 CNS
  TGI: 34.7 µM
OVCAR-3 ovarian
  TGI: 13.1 µM
HCT-15 colon
  TGI: 22.9 µM
RPMI-8226 leukemia
  TGI: > 100 µM
HOP-62 NSCLC
  TGI: 18.9 µM
SNB-75 CNS
  TGI: 23.6 µM
NCI/ADR-RES ovarian
  TGI: 25.1 µM

## C=CCn1c(-c2ccc(N=NNc3ccc(-c4n[nH]c(=S)n4CC=C)cc3)cc2)n[nH]c1=S
786-0 renal
  TGI: 25.4 µM
HCT-15 colon
  TGI: > 100 µM
RPMI-8226 leukemia
  TGI: 4.63 µM
T-47D breast
  TGI: 4.76 µM
HOP-62 NSCLC
  TGI: 14.8 µM
SNB-75 CNS
  TGI: 10.8 µM
NCI/ADR-RES ovarian
  TGI: 61.4 µM

## CN(CCN(C)Cc1ccc(Cl)c(Cl)c1)CCN1CCCC1
786-0 renal
  TGI: 64.6 µM
HL-60(TB) leukemia
  TGI: > 100 µM
SF-539 CNS
  TGI: > 59.7 µM
OVCAR-3 ovarian
  TGI: > 100 µM
HCT-15 colon
  TGI: > 100 µM
RPMI-8226 leukemia
  TGI: 32.4 µM
T-47D breast
  TGI: > 100 µM
HOP-62 NSCLC
  TGI: > 100 µM
SNB-75 CNS
  TGI: > 90.5 µM
NCI/ADR-RES ovarian
  TGI: > 100 µM

## O=C(O)C(C1NCCS1)N1Cc2ccccc2C1 (stereo not given)
786-0 renal
  TGI: > 100 µM
HL-60(TB) leukemia
  TGI: > 100 µM
SF-539 CNS
  TGI: > 100 µM
OVCAR-3 ovarian
  TGI: > 100 µM
HCT-15 colon
  TGI: > 100 µM
RPMI-8226 leukemia
  TGI: > 100 µM
T-47D breast
  TGI: > 100 µM
HOP-62 NSCLC
  TGI: > 100 µM
SNB-75 CNS
  TGI: > 100 µM
NCI/ADR-RES ovarian
  TGI: > 100 µM

## O=C1OS2(OC(=O)c3cccc4cccc2c34)c2ccccc21 (stereo not given)
786-0 renal
  TGI: > 100 µM
HL-60(TB) leukemia
  TGI: > 100 µM
SF-539 CNS
  TGI: > 100 µM
OVCAR-3 ovarian
  TGI: > 100 µM
HCT-15 colon
  TGI: > 100 µM
RPMI-8226 leukemia
  TGI: > 100 µM
T-47D breast
  TGI: > 100 µM
HOP-62 NSCLC
  TGI: > 100 µM
NCI/ADR-RES ovarian
  TGI: > 100 µM

## CC1CN=C(c2ccc3c(c2)Cc2cc(C4=NCC(C)N4)ccc2-3)N1 (stereo not given)
786-0 renal
  TGI: > 100 µM
OVCAR-3 ovarian
  TGI: 53.7 µM
HCT-15 colon
  TGI: > 100 µM
RPMI-8226 leukemia
  TGI: 98.7 µM
T-47D breast
  TGI: > 100 µM
HOP-62 NSCLC
  TGI: > 100 µM
SNB-75 CNS
  TGI: > 100 µM
NCI/ADR-RES ovarian
  TGI: > 100 µM

## COc1cc(/C=C/C(=O)OC[C@]23O[C@H]2[C@@H](OC2OC(C)C(O)C(O)C2O)C2C=CO[C@@H](OC4OC(CO)C(O)C(O)C4O)C23)ccc1O (stereo not given in full)
786-0 renal
  TGI: > 100 µM
HL-60(TB) leukemia
  TGI: > 100 µM
OVCAR-3 ovarian
  TGI: > 100 µM
HCT-15 colon
  TGI: > 100 µM
RPMI-8226 leukemia
  TGI: > 100 µM
T-47D breast
  TGI: > 100 µM
HOP-62 NSCLC
  TGI: > 100 µM
SNB-75 CNS
  TGI: > 100 µM
NCI/ADR-RES ovarian
  TGI: > 100 µM

## O=c1[nH]c(=O)n(COCCO)cc1-c1ccccc1
786-0 renal
  TGI: > 100 µM
HL-60(TB) leukemia
  TGI: > 100 µM
OVCAR-3 ovarian
  TGI: > 100 µM
HCT-15 colon
  TGI: > 100 µM
RPMI-8226 leukemia
  TGI: > 100 µM
T-47D breast
  TGI: > 100 µM
HOP-62 NSCLC
  TGI: > 100 µM
NCI/ADR-RES ovarian
  TGI: > 100 µM

## CCOC(=O)Cn1c(=O)c2cc(C)cc3c(Cl)nc4c(OC)c(OC)cc1c4c32
786-0 renal
  TGI: > 100 µM
HL-60(TB) leukemia
  TGI: > 100 µM
SF-539 CNS
  TGI: > 100 µM
OVCAR-3 ovarian
  TGI: > 100 µM
HCT-15 colon
  TGI: > 100 µM
RPMI-8226 leukemia
  TGI: > 100 µM
HOP-62 NSCLC
  TGI: > 100 µM
SNB-75 CNS
  TGI: > 100 µM
NCI/ADR-RES ovarian
  TGI: > 100 µM

## CCOC(=O)n1c2ccccc2c2c(O)c(OC)c3c(c21)C(=O)NC3=O
786-0 renal
  TGI: 98.5 µM
HL-60(TB) leukemia
  TGI: 49.2 µM
SF-539 CNS
  TGI: > 100 µM
OVCAR-3 ovarian
  TGI: > 100 µM
HCT-15 colon
  TGI: > 100 µM
RPMI-8226 leukemia
  TGI: > 100 µM
T-47D breast
  TGI: > 100 µM
HOP-62 NSCLC
  TGI: > 100 µM
SNB-75 CNS
  TGI: > 100 µM
NCI/ADR-RES ovarian
  TGI: 81.3 µM

## CC(C)=CCC[C@@H](C)c1c(O)c(O)c(C)c2nc3ccccc3nc12
786-0 renal
  TGI: 12.1 µM
HL-60(TB) leukemia
  TGI: 2.98 µM
SF-539 CNS
  TGI: 6.71 µM
OVCAR-3 ovarian
  TGI: 3.28 µM
HCT-15 colon
  TGI: 15 µM
RPMI-8226 leukemia
  TGI: > 20.2 µM
T-47D breast
  TGI: 10.6 µM
HOP-62 NSCLC
  TGI: 8.48 µM
SNB-75 CNS
  TGI: 6.8 µM
NCI/ADR-RES ovarian
  TGI: 7.48 µM

## Cc1ccc(N=c2oc3c(ccc4ccccc43)nc2Nc2ccc(C)cc2)cc1
786-0 renal
  TGI: > 100 µM
HL-60(TB) leukemia
  TGI: > 100 µM
SF-539 CNS
  TGI: > 100 µM
HCT-15 colon
  TGI: > 100 µM
RPMI-8226 leukemia
  TGI: > 100 µM
T-47D breast
  TGI: > 100 µM
HOP-62 NSCLC
  TGI: > 100 µM
SNB-75 CNS
  TGI: > 100 µM
NCI/ADR-RES ovarian
  TGI: > 100 µM

## COc1cc2[nH]c(=O)[nH]c2c2c(C)c[nH]c12
786-0 renal
  TGI: > 100 µM
HL-60(TB) leukemia
  TGI: > 100 µM
OVCAR-3 ovarian
  TGI: > 100 µM
HCT-15 colon
  TGI: > 100 µM
RPMI-8226 leukemia
  TGI: > 100 µM
T-47D breast
  TGI: > 100 µM
HOP-62 NSCLC
  TGI: > 100 µM
SNB-75 CNS
  TGI: > 100 µM
NCI/ADR-RES ovarian
  TGI: > 100 µM

## CC(C)OCC(O)COc1cc(=O)oc2ccccc12 (stereo not given)
786-0 renal
  TGI: > 100 µM
HL-60(TB) leukemia
  TGI: > 100 µM
OVCAR-3 ovarian
  TGI: > 100 µM
HCT-15 colon
  TGI: > 100 µM
RPMI-8226 leukemia
  TGI: > 100 µM
T-47D breast
  TGI: > 100 µM
HOP-62 NSCLC
  TGI: > 100 µM
NCI/ADR-RES ovarian
  TGI: > 100 µM

## COc1cc(CNc2nc3cc(C(F)(F)F)ccc3nc2C(=O)O)cc(OC)c1OC
786-0 renal
  TGI: 59.1 µM
HL-60(TB) leukemia
  TGI: 15.4 µM
SF-539 CNS
  TGI: 37.6 µM
OVCAR-3 ovarian
  TGI: 64.2 µM
HCT-15 colon
  TGI: > 100 µM
T-47D breast
  TGI: 83.8 µM
HOP-62 NSCLC
  TGI: 59.3 µM
SNB-75 CNS
  TGI: 74.7 µM
NCI/ADR-RES ovarian
  TGI: 76.4 µM

## Cc1cc2nc(N)n[n+]([O-])c2cc1C
786-0 renal
  TGI: > 100 µM
HL-60(TB) leukemia
  TGI: > 100 µM
SF-539 CNS
  TGI: > 100 µM
HCT-15 colon
  TGI: > 100 µM
RPMI-8226 leukemia
  TGI: > 100 µM
T-47D breast
  TGI: > 100 µM
HOP-62 NSCLC
  TGI: > 100 µM
NCI/ADR-RES ovarian
  TGI: > 100 µM
